The values below come from paper PMC8673480 (Journal of medicinal chemistry, 2021).

In general, IC50 refers to the midpoint of a concentration-inhibition curve. Read a high IC50 as lower potency. As usually defined, the CC50 is the concentration giving 50% cytotoxicity. Lower therefore signals harm at low concentration.

The target of data set [1] is SARS-CoV-2 3CLpro (Severe acute respiratory syndrome coronavirus 2, UniProt P0DTD1). Put plainly: biochemical. The format is biochemical.
A short description of data set [2]: Nonspecific cytotoxic effects / in vitro cytotoxicity. The data set is classed as cell-based. Conditions: human, HEK293T cells.
For data set [3], the target named is MERS-CoV 3CLpro (Middle East respiratory syndrome-related coronavirus, UniProt K9N7C7). Put plainly: biochemical.
The test system of data set [4] is PRRSV. Nature of the data set: Inhibition of replication of PRRSV. The format is cell-based, porcine respiratory and reproductive syndrome virus (PRRSV).

MERS-CoV 3CLpro, sequence (K9N7C7 3248-3553 limits assumed): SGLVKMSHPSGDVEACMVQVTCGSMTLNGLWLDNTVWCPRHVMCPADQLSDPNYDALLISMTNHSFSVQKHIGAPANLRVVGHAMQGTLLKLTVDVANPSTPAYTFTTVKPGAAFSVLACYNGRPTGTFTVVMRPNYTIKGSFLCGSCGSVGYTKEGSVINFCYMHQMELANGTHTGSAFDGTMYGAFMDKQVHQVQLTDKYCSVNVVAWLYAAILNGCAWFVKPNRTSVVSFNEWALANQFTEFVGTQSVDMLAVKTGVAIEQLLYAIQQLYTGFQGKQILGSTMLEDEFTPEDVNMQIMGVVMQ

Regarding `CCCC1CCC(COC(=O)NC(CC(C)C)C(=O)NC(C=O)CC2CCNC2=O)CC1` [Compound 8b, ((1r,4R)-4-Propylcyclohexyl) methyl ((2S)-4-methyl-1-oxo-1-(((2S)-1-oxo-3-(2-oxopyrrolidin-3-yl)propan-2-yl)amino)pentan-2-yl) carbamate], the half-inhibitory concentration (IC50) in data set [1] came out at 200 ± 30 nM; in data set [3] it was 60 ± 10 nM. This molecule showed a CC50 at 72 h in data set [2] of 43000 ± 9000 nM.

With `CC(C)C[C@H](NC(=O)OC(C)(C)C1CCC(F)(F)CC1)C(=O)N[C@@H](C[C@@H]1CCNC1=O)C(O)S(=O)(=O)[O-].[Na+]` (stereo partly drawn) [Compound 13c, Sodium (2S)-2-((S)-2-((((2-(4,4-difluorocyclohexyl)propan-2-yl)oxy)carbonyl)amino)-4-methylpentanamido)-1-hydroxy-3-((S)-2-oxopyrrolidin-3-yl)propane-1-sulfonate], the “IC50 higher than those of 12b and 14c” value in data set [1] is ~ 4 fold. With `CC(C)C[C@H](NC(=O)OCc1ccccc1)C(=O)N[C@@H](C[C@@H]1CCNC1=O)C(O)S(=O)(=O)[O-].[Na+]` (some centres unmarked) [GC376], the “inhibition of the replication of PRRSV” value in data set [4] is given as “none of them resulted in the reduction of viral replication”.
